This passage reports IC50 and relative activity results from publication PMC6963541, “Synthesis and Biological Evaluation of Lipophilic Nucleoside Analogues as Inhibitors of Aminoacyl-tRNA Synthetases” (Antibiotics, 2019).

Structures are written as SMILES.

The target of one test is T1, E. coli IleRS (Escherichia coli, UniProt P00956).
T1 construct: gene ileS; purified recombinant E. coli IleRS
T1 sequence (P00956 2-938): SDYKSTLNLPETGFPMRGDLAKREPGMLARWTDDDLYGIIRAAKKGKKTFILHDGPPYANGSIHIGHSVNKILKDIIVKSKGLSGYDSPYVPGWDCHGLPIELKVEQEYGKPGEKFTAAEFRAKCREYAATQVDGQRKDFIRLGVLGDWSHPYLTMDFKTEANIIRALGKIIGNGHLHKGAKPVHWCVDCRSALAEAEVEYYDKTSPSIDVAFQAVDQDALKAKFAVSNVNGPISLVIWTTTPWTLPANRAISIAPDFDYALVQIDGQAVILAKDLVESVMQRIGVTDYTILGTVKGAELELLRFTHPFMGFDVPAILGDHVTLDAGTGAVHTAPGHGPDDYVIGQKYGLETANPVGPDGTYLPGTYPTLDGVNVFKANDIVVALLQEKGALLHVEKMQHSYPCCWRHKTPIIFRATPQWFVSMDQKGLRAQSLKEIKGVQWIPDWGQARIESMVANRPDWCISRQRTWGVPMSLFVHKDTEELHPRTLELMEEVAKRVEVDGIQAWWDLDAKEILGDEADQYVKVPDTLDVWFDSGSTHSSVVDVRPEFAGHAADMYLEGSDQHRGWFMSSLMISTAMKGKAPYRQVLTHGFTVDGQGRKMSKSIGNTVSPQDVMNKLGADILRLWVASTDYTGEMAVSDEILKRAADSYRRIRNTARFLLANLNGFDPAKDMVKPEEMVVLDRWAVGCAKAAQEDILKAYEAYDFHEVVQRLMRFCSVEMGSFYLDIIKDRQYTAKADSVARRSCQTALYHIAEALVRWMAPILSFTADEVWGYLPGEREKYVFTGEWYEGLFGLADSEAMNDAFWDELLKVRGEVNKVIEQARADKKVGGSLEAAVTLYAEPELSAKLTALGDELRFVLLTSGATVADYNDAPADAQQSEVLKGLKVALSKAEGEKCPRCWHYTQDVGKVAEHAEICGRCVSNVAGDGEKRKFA
In words: radiolabel aminoacyl transfer assay ([…]-Ile to tRNA, TCA precipitation). The class given is biochemical.
Settings: not given
Turning to `CC[C@H](C)[C@H](N)C(=O)NS(=O)(=O)OC[C@H]1O[C@@H](n2cnc3c(NC)ncnc32)[C@H](O)[C@@H]1O` [6a, 5′-O-(N-L-isoleucyl)-sulfamoyl-N^6-methyl-adenosine], inhibition was half-maximal at 0.0139 ± 0.001 µM (IC50).
`CCCCCCCCNc1ncnc2c1ncn2[C@@H]1O[C@H](COS(=O)(=O)NC(=O)[C@@H](N)[C@@H](C)CC)[C@@H](O)[C@H]1O` [6b, 5′-O-(N-L-isoleucyl)-sulfamoyl-N^6-octyl-adenosine] gave an IC50 of 0.0428 ± 0.001 µM.
The compound `CC[C@H](C)[C@H](N)C(=O)NS(=O)(=O)OC[C@H]1O[C@@H](n2cnc3c(OC)ncnc32)[C@H](O)[C@@H]1O` [6f, 5′-O-(N-L-isoleucyl)-sulfamoyl-6-O-methyl-purine riboside] displayed an IC50 of 0.0049 ± 0.0011 µM. Against the preceding compound, the IC50 is about 8.7-fold lower.
As to `CC[C@H](C)[C@H](N)C(=O)NS(=O)(=O)OC[C@H]1O[C@@H](n2cnc3c(Nc4ccccc4)ncnc32)[C@H](O)[C@@H]1O` [6e, 5′-O-(N-L-isoleucyl)-sulfamoyl-N^6-phenyl-adenosine], the IC50 was 0.0105 ± 0.001 µM.

The next test concerns the target T1, E. coli IleRS. Described as above. The class given is biochemical. To be noted: 10 nM IleRS, 50 µM 14C-isoleucine, 2 mg/mL tRNA, 500 µM ATP, 10 mM MgCl2, pH 7.5, 37 °C, 10 min preincubation; dose-response curve not determined.
Turning to `CCCCCCCCCCCCCCCCCCNc1ncnc2c1ncn2[C@@H]1O[C@H](COS(=O)(=O)NC(=O)[C@@H](N)[C@@H](C)CC)[C@@H](O)[C@H]1O` [6d, 5′-O-(N-L-isoleucyl)-sulfamoyl-N^6-octadecyl-adenosine], the relative activity entry was “the octadecyl compound 6d was found to be active only in the micromolar range”.
Still for that read-out and setting: the result for `CCCCCCCCCCCCNc1ncnc2c1ncn2[C@@H]1O[C@H](COS(=O)(=O)NC(=O)[C@@H](N)[C@@H](C)CC)[C@@H](O)[C@H]1O` [6c, 5′-O-(N-L-isoleucyl)-sulfamoyl-N^6-dodecyl-adenosine] reads “the dodecyl derivative 6c was active in submicromolar range”.

As usually defined, the IC50 is the midpoint of a concentration-inhibition curve. The low end stands for higher potency, the high end for lower potency.
